# Test results published in patent publication US9359308B2, “Pyrazine kinase inhibitors” (Portola Pharmaceuticals, Inc., priority 2011, dated 2016).
# Biological target: T1, full length active recombinant SYK enzyme (Homo sapiens, UniProt P43405)
# T1 construct: full length active recombinant SYK enzyme (Millipore, Calif.); purchased Millipore
# Assay: Inhibition of Syk tyrosine phosphorylation activity (LANCE TR-FRET kinase assay)
# Format: biochemical
# Settings: activity in the Syk assays, class symbols
# In short: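 1 nM full-length active recombinant SYK phosphorylated 550 nM biotin-DEEDYESP-OH with 100 μM ATP in 50 mM Tris pH 7.5, 5 mM MgCl2, 1 mM DTT and 3% DMSO for 1 h at room temperature. After EDTA quench, Eu-anti-phosphotyrosine/SA-APC TR-FRET was read after 1 h. IC50s came from non-linear regression.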
row,IC50,SMILES
1,1 to 10 nM,"CN(C)c1nc2ccc(Nc3nc(N[C@@H]4CCCC(F)(F)[C@@H]4N)cnc3C(N)=O)cc2o1 [Example 336, 5-((1R,2R)-2-amino-3,3-difluorocyclohexylamino)-3-(2-(dimethylamino)benzo[d]oxazol-6-ylamino)pyrazine-2-carboxamide]"
2,10 to 100 nM,"NC(=O)c1ncc(N[C@@H]2CCCC(F)(F)[C@@H]2N)nc1Nc1ccc(C2CC2)nc1 [Example 345, 5-((1R,2R)-2-amino-3,3-difluorocyclohexylamino)-3-(6-cyclopropylpyridin-3-ylamino)pyrazine-2-carboxamide]"
3,10 to 100 nM,"CC[C@@H](Nc1cnc(C(N)=O)c(Nc2snc(C)c2Br)n1)C(N)=O [Example 132, (R)-5-((1-amino-1-oxobutan-2-yl)amino)-3-((4-bromo-3-methylisothiazol-5-yl)amino)pyrazine-2-carboxamide]"
4,< 1 nM,"CN1Cc2cc(Nc3nc(N[C@@H]4CCCC[C@@H]4N)cnc3C(N)=O)ccc2C1=O [Example 339, 5-((1R,2S)-2-aminocyclohexylamino)-3-(2-methyl-1-oxoisoindolin-5-ylamino)pyrazine-2-carboxamide]"
5,1 to 10 nM,"NC(=O)c1ncc(N[C@@H]2CCCC(F)(F)[C@@H]2N)nc1Nc1ccc2c(c1)CCOC2 [Example 453, 5-(((1R,2R)-2-amino-3,3-difluorocyclohexyl)amino)-3-(isochroman-6-ylamino)pyrazine-2-carboxamide]"
6,1 to 10 nM,"CC[C@@H](Nc1cnc(C(N)=O)c(Nc2csc3ncccc23)n1)C(N)=O [Example 75, (R)-5-(1-amino-1-oxobutan-2-ylamino)-3-(thieno[2,3-b]pyridin-3-ylamino)pyrazine-2-carboxamide]"
7,1 to 10 nM,"CC[C@@H](Nc1cnc(C(N)=O)c(Nc2ccnc3ncccc23)n1)C(N)=O [Example 386, (R)-3-(1,8-naphthyridin-4-ylamino)-5-(1-amino-1-oxobutan-2-ylamino)pyrazine-2-carboxamide]"
8,1 to 10 nM,"NC(=O)c1ncc(N[C@@H]2CCNC2)nc1Nc1ccc2ncccc2c1 [Example 56, (R)-5-(pyrrolidin-3-ylamino)-3-(quinolin-6-ylamino)pyrazine-2-carboxamide]"
9,10 to 100 nM,"Cc1ccc(Nc2nc(N[C@@H]3CCNC3)cnc2C(N)=O)cc1 [Example 112, (R)-5-(pyrrolidin-3-ylamino)-3-(p-tolylamino)pyrazine-2-carboxamide]"
10,> 1000 nM,"CC[C@@H](Nc1cnc(C(N)=O)c(Nc2cc(C)ccn2)n1)C(N)=O [Example 320, (R)-5-(1-amino-1-oxobutan-2-ylamino)-3-(4-methylpyridin-2-ylamino)pyrazine-2-carboxamide]"
11,10 to 100 nM,"NC(=O)c1ncc(N[C@@H]2CCCC[C@@H]2N)nc1Nc1ccc(-n2ccccc2=O)cc1 [Example 440, 5-(((1R,2S)-2-aminocyclohexyl)amino)-3-((4-(2-oxopyridin-1(2H)-yl)phenyl)amino)pyrazine-2-carboxamide]"
12,10 to 100 nM,"Cc1cc(Nc2nc(N[C@H](CC3CCCCC3)C(N)=O)cnc2C(N)=O)sn1 [Example 390, (R)-5-(1-amino-3-cyclohexyl-1-oxopropan-2-ylamino)-3-(3-methylisothiazol-5-ylamino)pyrazine-2-carboxamide]"
13,10 to 100 nM,"NC(=O)c1ncc(NC2(C(N)=O)CC2)nc1Nc1cnc2ccccc2c1 [Example 362, 5-(1-carbamoylcyclopropylamino)-3-(quinolin-3-ylamino)pyrazine-2-carboxamide]"
14,10 to 100 nM,"NC(=O)c1ncc(N[C@@H]2CCCC(F)(F)[C@@H]2N)nc1Nc1ccc2nc(N3CCC3)oc2c1 [Example 337, 5-((1R,2R)-2-amino-3,3-difluorocyclohexylamino)-3-(2-(azetidin-1-yl)benzo[d]oxazol-6-ylamino)pyrazine-2-carboxamide]"
15,1 to 10 nM,"NC(=O)c1ncc(N[C@@H]2CCCC[C@@H]2N)nc1Nc1ccc(N2CCOCC2)c(F)c1 [Example 439, 5-(((1R,2S)-2-aminocyclohexyl)amino)-3-((3-fluoro-4-morpholinophenyl)amino)pyrazine-2-carboxamide]"
16,1 to 10 nM,"CCC(=O)N1CCC(c2ccc(Nc3nc(N[C@@H]4CCCC[C@@H]4N)cnc3C(N)=O)cc2)CC1 [Example 438, 5-(((1R,2S)-2-aminocyclohexyl)amino)-3-((4-(1-propionylpiperidin-4-yl)phenyl)amino)pyrazine-2-carboxamide]"
17,1 to 10 nM,"CC(C)[C@@H](Nc1cnc(C(N)=O)c(Nc2cnc3c(F)cccc3c2)n1)C(N)=O [Example 204, (R)-5-(1-amino-3-methyl-1-oxobutan-2-ylamino)-3-(8-fluoroquinolin-3-ylamino)pyrazine-2-carboxamide]"
18,1 to 10 nM,"Cc1cc(Nc2nc(N[C@H](CC(F)(F)F)C(N)=O)cnc2C(N)=O)sn1 [Example 398, (R)-5-(1-amino-4,4,4-trifluoro-1-oxobutan-2-ylamino)-3-(3-methylisothiazol-5-ylamino)pyrazine-2-carboxamide]"
19,1 to 10 nM,"NC(=O)c1ncc(N[C@H](CC2CC2)C(N)=O)nc1Nc1csc2ncccc12 [Example 9, (R)-5-(1-amino-3-cyclopropyl-1-oxopropan-2-ylamino)-3-(thieno[2,3-b]pyridin-3-ylamino)pyrazine-2-carboxamide]"
20,10 to 100 nM,"COc1ncc(Nc2nc(N[C@@H]3CCCC(F)(F)[C@@H]3N)cnc2C(N)=O)cc1C [Example 332, 5-((1R,2R)-2-amino-3,3-difluorocyclohexylamino)-3-(6-methoxy-5-methylpyridin-3-ylamino)pyrazine-2-carboxamide]"
21,1 to 10 nM,"NC(=O)c1ncc(NC2(C(N)=O)CCC2)nc1Nc1ccc2ncccc2c1 [Example 34, 5-(1-carbamoylcyclobutylamino)-3-(quinolin-6-ylamino)pyrazine-2-carboxamide]"
22,10 to 100 nM,"NC(=O)c1ncc(N[C@@H]2CCCC[C@@H]2N)nc1Nc1ccc(N2CCOCC2=O)cc1 [Example 442, 5-(((1R,2S)-2-aminocyclohexyl)amino)-3-((4-(3-oxomorpholino)phenyl)amino)pyrazine-2-carboxamide]"
23,1 to 10 nM,"CC(C)(C)[C@@H](Nc1cnc(C(N)=O)c(Nc2cnc3ccccc3c2)n1)C(N)=O [Example 191, (R)-5-(1-amino-3,3-dimethyl-1-oxobutan-2-ylamino)-3-(quinolin-3-ylamino)pyrazine-2-carboxamide]"
24,1 to 10 nM,"C[C@@H](Nc1cnc(C(N)=O)c(Nc2cc(C3CC3)ns2)n1)C(N)=O [Example 239, (R)-5-(1-amino-1-oxopropan-2-ylamino)-3-(3-cyclopropylisothiazol-5-ylamino)pyrazine-2-carboxamide]"
25,100 to 1000 nM,"CC[C@@H](Nc1cnc(C(N)=O)c(Nc2cnn(C3CC3)c2)n1)C(N)=O [Example 260, (R)-5-(1-amino-1-oxobutan-2-ylamino)-3-(1-cyclopropyl-1H-pyrazol-4-ylamino)pyrazine-2-carboxamide]"
26,< 1 nM,"NC(=O)c1ncc(N[C@@H]2CCCC[C@@H]2N)nc1Nc1ccnc(C2CC2)c1 [Example 352, 5-((1R,2S)-2-aminocyclohexylamino)-3-(2-cyclopropylpyridin-4-ylamino)pyrazine-2-carboxamide]"
27,10 to 100 nM,"Cc1cc(C)cc(Nc2nc(N[C@@H](C(N)=O)C(C)C)cnc2C(N)=O)c1 [Example 163, (R)-5-(1-amino-3-methyl-1-oxobutan-2-ylamino)-3-(3,5-dimethylphenylamino)pyrazine-2-carboxamide]"
